Data on one compound can be found in ChEMBL document CHEMBL1914382, “Fragment based discovery of a novel and selective PI3 kinase inhibitor” (Bioorg Med Chem Lett, 2011).

A short description of series [1]: Permeability of the compound by PAMPA. It counts as ADME. To be noted: read-out: permeability.
A short description of series [2]: Metabolic stability in human liver microsomes. The series is classed as ADME, Microsome. To be noted: read-out: Stability.
Series [3] can be described thus: Metabolic stability in rat liver microsomes. It counts as ADME, Microsome. To be noted: read-out: Stability. Background: Microsomes from liver hold many membrane-bound enzymes, among them those of drug oxidation.

Turning to `CC(=O)Nc1cn2cc(/C=C3\SC(=O)NC3=O)ccc2n1`, the Papp in series [1] turned out to be 13.6 ×10⁻⁶ cm/s. The figures for the microsomal CLint in series [2] and in series [3] were 10 µL/min/mg and 15 µL/min/mg, respectively.
